In US11471465B2 (priority 2017, dated 2022):
Like-named read-outs stand apart in the source and are kept apart here.

Experiments:
[1] = Dissolution testing of the monolayer meloxicam/rizatriptan tablet in 0.01 N HCl, Example 4; type: physicochemical; conditions: monolayer tablet of Example 4, 0.01 N HCl, 75 RPM, 37° C
Protocol: Dissolution testing of the tablets in acidic medium (chosen to simulate gastric conditions) was performed by placing the tablets in a 0.01 N HCl solution, at an agitation rate of 75 RPM, and vessel temperature of approximately 37° C.

[2] = cited from earlier work
[3] = Experimental: The effect of varying amounts of potassium carbonate (K2CO3) and sodium bicarbonate (NaHCO3) on the pH of acidic media was tested. The acidic media was chosen to simulate gastric conditions. K2CO3 or NaHCO3 was added to 50 mL of a 0.01 N HCl solution (pH 2). The pH of the solution was measured after addition of the K2CO3 or NaHCO3. Deionized water (240 mL) was then added to the mixture and pH was measured again.
[4] = system: moderate and severe migraine; test: Phase 3 placebo- and active-controlled trial (MOMENTUM), patients with inadequate response to prior acute treatments, Example 11
[5] = from 2 hours to 24 hours after dosing

Molecule: Cc1cnc(NC(=O)C2=C(O)c3ccccc3S(=O)(=O)N2C)s1 [Meloxicam]
- percent dissolved ([1]; 0 min): 0%
- percent dissolved ([1]; 15 min): 79%
- percent dissolved ([1]; 30 min): 92%
- percent dissolved ([1]; 45 min): 93%
- percent dissolved ([1]; 60 min): 93%
- percent dissolved ([1]; 90 min): 93%
- percent dissolved ([1]; 120 min): 94%
- AUC0-24 of meloxicam ([2]; 15 mg IV and intramuscular doses, human beings): about 27 μg·hr/mL
- reported Tmax ([2]; intramuscular): 60 to 84 min
- reported Tmax ([2]; intravenous bolus): ~3 min
- reported Tmax ([2]; intravenous infusion): approximately 30 minutes

Molecule: O=C([O-])O.[Na+] [NaHCO3, sodium bicarbonate]
- pH ([3]; 200 mg NaHCO3, 0.01 N HCl + 240 mL water): 5.41
- pH ([3]; 200 mg NaHCO3 added to 50 mL 0.01 N HCl): 5.28
- pH ([3]; 300 mg NaHCO3, 0.01 N HCl + 240 mL water): 5.89
- pH ([3]; 300 mg NaHCO3 added to 50 mL 0.01 N HCl): 5.90
- pH ([3]; 400 mg NaHCO3, 0.01 N HCl + 240 mL water): 6.11
- pH ([3]; 400 mg NaHCO3 added to 50 mL 0.01 N HCl): 6.44
- pH ([3]; 450 mg NaHCO3, 0.01 N HCl + 240 mL water): 6.46
- pH ([3]; 450 mg NaHCO3 added to 50 mL 0.01 N HCl): 6.86
- pH ([3]; 500 mg NaHCO3, 0.01 N HCl + 240 mL water): 8.33
- pH ([3]; 500 mg NaHCO3 added to 50 mL 0.01 N HCl): 8.23
- pH ([3]; 750 mg NaHCO3, 0.01 N HCl + 240 mL water): 8.54
- pH ([3]; 750 mg NaHCO3 added to 50 mL 0.01 N HCl): 8.30
- pH ([3]; 1000 mg NaHCO3, 0.01 N HCl + 240 mL water): 8.60
- pH ([3]; 1000 mg NaHCO3 added to 50 mL 0.01 N HCl): 8.36

Molecule: O=C([O-])[O-].[K+].[K+] [Tablet K2CO3, potassium carbonate]
- pH ([3]; 25 mg K2CO3 added to 50 mL 0.01 N HCl): 2.84
- pH ([3]; 35 mg K2CO3 added to 50 mL 0.01 N HCl): 6.29
- pH ([3]; 45 mg K2CO3 added to 50 mL 0.01 N HCl): 8.05
- pH ([3]; 50 mg K2CO3 added to 50 mL 0.01 N HCl): 8.29
- pH ([3]; 100 mg K2CO3 added to 50 mL 0.01 N HCl): 9.43
- pH ([3]; 200 mg K2CO3, 0.01 N HCl + 240 mL water): 10.27
- pH ([3]; 200 mg K2CO3 added to 50 mL 0.01 N HCl): 10.14
- pH ([3]; 300 mg K2CO3, 0.01 N HCl + 240 mL water): 10.46
- pH ([3]; 300 mg K2CO3 added to 50 mL 0.01 N HCl): 10.39
- pH ([3]; 400 mg K2CO3, 0.01 N HCl + 240 mL water): 10.57
- pH ([3]; 400 mg K2CO3 added to 50 mL 0.01 N HCl): 10.55
- pH ([3]; 450 mg K2CO3, 0.01 N HCl + 240 mL water): 10.63
- pH ([3]; 450 mg K2CO3 added to 50 mL 0.01 N HCl): 10.58

Molecule: Rizatriptan
- percent dissolved ([1]; 0 min): 0%
- percent dissolved ([1]; 15 min): 89%
- percent dissolved ([1]; 30 min): 102%
- percent dissolved ([1]; 45 min): 103%
- percent dissolved ([1]; 60 min): 103%
- percent dissolved ([1]; 90 min): 103%
- percent dissolved ([1]; 120 min): 103%
- patients experiencing relapse of pain ([4]; 48-hour period after dosing): 45.2%
- probability of experiencing pain relief ([4]; 24 hours after taking): approximately 60%
- proportion of patients experiencing pain relief ([4]; […] after dosing): 52.5%
- percentage of patients achieving sustained pain freedom [4, 5]: 11.2%
- percentage of patients experiencing sustained pain relief [4, 5]: 43.9%
- percentage of patients experiencing sustained pain freedom ([4]; from 2 hours to 48 hours): 8.8%
- percentage of patients experiencing sustained pain relief ([4]; from 2 hours to 48 hours): 36.5%
- median time to pain relief ([4]; human, in vivo): 4 h
- Any Treatment-Emergent Adverse Event, % of subjects ([4]; single dose): (15.4%)
- Any Treatment-Emergent Adverse Event, number of subjects ([4]; single dose): 67
- Dizziness, % of subjects ([4]; single dose): (2.1%)
- Dizziness, number of subjects ([4]; single dose): 9
- Nausea, % of subjects ([4]; single dose): (4.8%)
- Nausea, number of subjects ([4]; single dose): 21
- Somnolence, % of subjects ([4]; single dose): (2.1%)
- Somnolence, number of subjects ([4]; single dose): 9
- patients who used rescue medication ([4]; through hour 24 post dose): 34.7%
